What was measured:
CCRF-CEM = assay: cells; format: cell-based; conditions: Homo sapiens, 10 μM, read-out: growth inhibition % (GI%)
K-562 = assay: cells; format: cell-based; conditions: Homo sapiens, K562; K-562; 10 μM; read-out: growth inhibition % (GI%)
MOLT-4 = assay: cells; format: cell-based; conditions: Homo sapiens; MOLT-4; 10 μM; read-out: growth inhibition % (GI%)
RPMI-8226 = assay: cells; format: cell-based; conditions: Homo sapiens; RPMI-8226; 10 μM; read-out: growth inhibition % (GI%)
SR = assay: cells; format: cell-based; conditions: Homo sapiens, 10 μM, read-out: growth inhibition % (GI%)
A549/ATCC = assay: cells; format: cell-based; conditions: Homo sapiens; A549/ATCC; 10 μM; read-out: growth inhibition % (GI%)
EKVX = assay: cells; format: cell-based; conditions: Homo sapiens, 10 μM, read-out: growth inhibition % (GI%)
HOP-62 = assay: cells; format: cell-based; conditions: Homo sapiens; HOP-62; 10 μM; read-out: growth inhibition % (GI%)
HOP-92 = assay: cells; format: cell-based; conditions: Homo sapiens; HOP-92; 10 μM; read-out: growth inhibition % (GI%)
NCI-H226 = assay: cells; format: cell-based; conditions: Homo sapiens; NCI-H226; 10 μM; read-out: growth inhibition % (GI%)
NCI-H322M = assay: cells; format: cell-based; conditions: Homo sapiens, 10 μM, read-out: growth inhibition % (GI%)
NCI-H522 = assay: cells; format: cell-based; conditions: Homo sapiens; NCI-H522; 10 μM; read-out: growth inhibition % (GI%)
COLO-205 = assay: cells; format: cell-based; conditions: Homo sapiens; COLO-205; 10 μM; read-out: growth inhibition % (GI%)
HCC-2998 = assay: cells; format: cell-based; conditions: Homo sapiens; HCC-2998; 10 μM; read-out: growth inhibition % (GI%)
HCT-116 = assay: cells; format: cell-based; conditions: Homo sapiens; HCT-116; 10 μM; read-out: growth inhibition % (GI%)
HCT-15 = assay: cells; format: cell-based; conditions: Homo sapiens; HCT-15; 10 μM; read-out: growth inhibition % (GI%)
KM12 = assay: cells; format: cell-based; conditions: Homo sapiens; KM12; 10 μM; read-out: growth inhibition % (GI%)
SW-620 = assay: cells; format: cell-based; conditions: Homo sapiens; SW-620; 10 μM; read-out: growth inhibition % (GI%)
SF-268 = assay: cells; format: cell-based; conditions: Homo sapiens; SF-268; 10 μM; read-out: growth inhibition % (GI%)
SF-539 = assay: cells; format: cell-based; conditions: Homo sapiens; SF-539; 10 μM; read-out: growth inhibition % (GI%)
SNB-19 = assay: cells; format: cell-based; conditions: Homo sapiens; SNB-19; 10 μM; read-out: growth inhibition % (GI%)
SNB-75 = assay: cells; format: cell-based; conditions: Homo sapiens; SNB-75; 10 μM; read-out: growth inhibition % (GI%)
U251 = assay: cells; format: cell-based; conditions: Homo sapiens, U-251; U251; 10 μM; read-out: growth inhibition % (GI%)
LOX IMIV = assay: cells; format: cell-based; conditions: Homo sapiens, 60 cell; LOX IMIV; 10 μM; read-out: growth inhibition % (GI%)
MALME-3M = assay: cells; format: cell-based; conditions: Homo sapiens; MALME-3M; 10 μM; read-out: growth inhibition % (GI%)
SK-MEL-2 = assay: cells; format: cell-based; conditions: Homo sapiens; SK-MEL-2; 10 μM; read-out: growth inhibition % (GI%)
SK-MEL-28 = assay: cells; format: cell-based; conditions: Homo sapiens; SK-MEL-28; 10 μM; read-out: growth inhibition % (GI%)
SK-MEL-5 = assay: cells; format: cell-based; conditions: Homo sapiens; SK-MEL-5; 10 μM; read-out: growth inhibition % (GI%)
UACC-257 = assay: cells; format: cell-based; conditions: Homo sapiens; UACC-257; 10 μM; read-out: growth inhibition % (GI%)
IGROV1 = assay: cells; format: cell-based; conditions: Homo sapiens, IGROV-1; IGROV1; 10 μM; read-out: growth inhibition % (GI%)
OVCAR-4 = assay: cells; format: cell-based; conditions: Homo sapiens; OVCAR-4; 10 μM; read-out: growth inhibition % (GI%)
OVCAR-5 = assay: cells; format: cell-based; conditions: Homo sapiens; OVCAR-5; 10 μM; read-out: growth inhibition % (GI%)
NCI/ADR-RES = assay: cells; format: cell-based; conditions: Homo sapiens, 10 μM, read-out: growth inhibition % (GI%)
SK-OV-3 = assay: cells; format: cell-based; conditions: Homo sapiens; SK-OV-3; 10 μM; read-out: growth inhibition % (GI%)
786-0 = assay: cells; format: cell-based; conditions: Homo sapiens; 786-0; 10 μM; read-out: growth inhibition % (GI%)
A498 = assay: cells; format: cell-based; conditions: Homo sapiens; A498; 10 μM; read-out: growth inhibition % (GI%)
ACHN = assay: cells; format: cell-based; conditions: Homo sapiens, 10 μM, read-out: growth inhibition % (GI%)
TK-10 = assay: cells; format: cell-based; conditions: Homo sapiens; TK-10; 10 μM; read-out: growth inhibition % (GI%)
DU-145 = assay: cells; format: cell-based; conditions: Homo sapiens; DU-145; 10 μM; read-out: growth inhibition % (GI%)
MCF7 = assay: cells; format: cell-based; conditions: Homo sapiens; MCF7; 10 μM; read-out: growth inhibition % (GI%)
MDA-MB-231/ATCC = assay: NCI 60 cell line antiproliferative screening (SRB), Breast cancer; format: cell-based; conditions: Homo sapiens, MDA-MB-231, read-out: growth inhibition % (GI%)
HS 578T = assay: cells; format: cell-based; conditions: Homo sapiens; HS 578T; 10 μM; read-out: growth inhibition % (GI%)
BT-549 = assay: cells; format: cell-based; conditions: Homo sapiens; BT-549; 10 μM; read-out: growth inhibition % (GI%)
T-47D = assay: cells; format: cell-based; conditions: Homo sapiens, T47D; T-47D; 10 μM; read-out: growth inhibition % (GI%)
[1] = test system: panel of 60 tumour cell lines; assay: NCI 60 cell line antiproliferative screening (SRB), whole panel or subpanels (means, ranges, words); format: cell-based, human; conditions: for antiproliferative activity against all tested cell lines: 10 μM single dose; for inhibition at 10 µM: Homo sapiens, 60 cell, mean over the cell line panel, read-out: Mean growth inhibition % (mean GI%)
OVCAR-3 = assay: NCI 60 cell line antiproliferative screening (SRB), Ovarian cancer; conditions: Homo sapiens, OVCAR-3, read-out: growth inhibition % (GI%)

O=C(CSc1nc2ccccc2c(=O)n1-c1ccccc1)NN=Cc1ccc(N2CCOCC2)cc1 [6h, N'-(4-morpholinobenzylidene)-2-((4-oxo-3-phenyl-3,4-dihydroquinazolin-2-yl)thio)acetohydrazide]
inhibition at 10 µM (CCRF-CEM): < 15%
inhibition at 10 µM (K-562): < 15%
inhibition at 10 µM (MOLT-4): < 15%
inhibition at 10 µM (RPMI-8226): < 15%
inhibition at 10 µM (SR): < 15%
inhibition at 10 µM (A549/ATCC): < 15%
inhibition at 10 µM (EKVX): < 15%
inhibition at 10 µM (HOP-62): < 15%
inhibition at 10 µM (HOP-92): 18.7%
inhibition at 10 µM (NCI-H226): < 15%
inhibition at 10 µM (NCI-H322M): < 15%
inhibition at 10 µM (NCI-H522): < 15%
inhibition at 10 µM (COLO-205): < 15%
inhibition at 10 µM (HCC-2998): < 15%
inhibition at 10 µM (HCT-116): < 15%
inhibition at 10 µM (HCT-15): < 15%
inhibition at 10 µM (KM12): < 15%
inhibition at 10 µM (SW-620): < 15%
inhibition at 10 µM (SF-268): < 15%
inhibition at 10 µM (SF-539): < 15%
inhibition at 10 µM (SNB-19): < 15%
inhibition at 10 µM (SNB-75): < 15%
inhibition at 10 µM (U251): < 15%
inhibition at 10 µM (LOX IMIV): < 15%
inhibition at 10 µM (MALME-3M): < 15%
inhibition at 10 µM (SK-MEL-2): < 15%
inhibition at 10 µM (SK-MEL-28): < 15%
inhibition at 10 µM (SK-MEL-5): < 15%
inhibition at 10 µM (UACC-257): < 15%
inhibition at 10 µM (IGROV1): < 15%
inhibition at 10 µM (OVCAR-4): < 15%
inhibition at 10 µM (OVCAR-5): < 15%
inhibition at 10 µM (NCI/ADR-RES): < 15%
inhibition at 10 µM (SK-OV-3): < 15%
inhibition at 10 µM (786-0): < 15%
inhibition at 10 µM (A498): 15.8%
inhibition at 10 µM (ACHN): < 15%
inhibition at 10 µM (TK-10): < 15%
inhibition at 10 µM (DU-145): < 15%
inhibition at 10 µM (MCF7): < 15%
inhibition at 10 µM (MDA-MB-231/ATCC): < 15%
inhibition at 10 µM (HS 578T): < 15%
inhibition at 10 µM (BT-549): < 15%
inhibition at 10 µM (T-47D): < 15%
antiproliferative activity against all tested cell lines [1]: did not show activity
inhibition at 10 µM [1]: < 0%
inhibition at 10 µM (OVCAR-3): < 15%

CN1CCN(c2ccc(C=NNC(=O)CSc3nc4ccccc4c(=O)n3-c3ccccc3)cc2)CC1 [6i, N'-(4–(4-methylpiperazin-1-yl)benzylidene)-2-((4-oxo-3-phenyl-3,4-dihydroquinazolin-2-yl)thio) acetohydrazide]
inhibition at 10 µM (CCRF-CEM): < 15%
inhibition at 10 µM (K-562): < 15%
inhibition at 10 µM (MOLT-4): < 15%
inhibition at 10 µM (RPMI-8226): < 15%
inhibition at 10 µM (SR): < 15%
inhibition at 10 µM (A549/ATCC): < 15%
inhibition at 10 µM (EKVX): < 15%
inhibition at 10 µM (HOP-62): < 15%
inhibition at 10 µM (HOP-92): < 15%
inhibition at 10 µM (NCI-H226): < 15%
inhibition at 10 µM (NCI-H322M): < 15%
inhibition at 10 µM (NCI-H522): < 15%
inhibition at 10 µM (COLO-205): < 15%
inhibition at 10 µM (HCC-2998): < 15%
inhibition at 10 µM (HCT-116): < 15%
inhibition at 10 µM (HCT-15): < 15%
inhibition at 10 µM (KM12): < 15%
inhibition at 10 µM (SW-620): < 15%
inhibition at 10 µM (SF-268): < 15%
inhibition at 10 µM (SF-539): < 15%
inhibition at 10 µM (SNB-19): < 15%
inhibition at 10 µM (SNB-75): < 15%
inhibition at 10 µM (U251): < 15%
inhibition at 10 µM (LOX IMIV): < 15%
inhibition at 10 µM (MALME-3M): < 15%
inhibition at 10 µM (SK-MEL-2): < 15%
inhibition at 10 µM (SK-MEL-28): < 15%
inhibition at 10 µM (SK-MEL-5): < 15%
inhibition at 10 µM (UACC-257): < 15%
inhibition at 10 µM (IGROV1): < 15%
inhibition at 10 µM (OVCAR-4): < 15%
inhibition at 10 µM (OVCAR-5): < 15%
inhibition at 10 µM (NCI/ADR-RES): < 15%
inhibition at 10 µM (SK-OV-3): < 15%
inhibition at 10 µM (786-0): < 15%
inhibition at 10 µM (A498): 10.2%
inhibition at 10 µM (ACHN): < 15%
inhibition at 10 µM (TK-10): < 15%
inhibition at 10 µM (DU-145): < 15%
inhibition at 10 µM (MCF7): < 15%
inhibition at 10 µM (MDA-MB-231/ATCC): < 15%
inhibition at 10 µM (HS 578T): < 15%
inhibition at 10 µM (BT-549): < 15%
inhibition at 10 µM (T-47D): < 15%
antiproliferative activity against all tested cell lines [1]: did not show activity
inhibition at 10 µM [1]: < 0%
inhibition at 10 µM (OVCAR-3): < 15%
